Source: publication PMC9505659, “Mixture Effects of Tryptophan Intestinal Microbial Metabolites on Aryl Hydrocarbon Receptor Activity” (International Journal of Molecular Sciences, 2022)
Like-named read-outs stand apart in the source and are kept apart here.

Assays:
AHR [1] = test system: AHR; parameters: method as in PMID 32283770; conditions: reporter hepatic cell line, 24 h of incubation; cited from earlier work
AHR [2] = biological target: T1, AHR (Homo sapiens, UniProt P35869); assay: High-throughput AHR reporter gene assay in AZ-AHR cells;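 note: luciferase activity measured in lysed AZ-AHR reporter cells after 4 h compound exposure, with 0.1% DMSO as vehicle control and 5 nM TCDD as reference agonist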
T1 sequence (P35869 11-848): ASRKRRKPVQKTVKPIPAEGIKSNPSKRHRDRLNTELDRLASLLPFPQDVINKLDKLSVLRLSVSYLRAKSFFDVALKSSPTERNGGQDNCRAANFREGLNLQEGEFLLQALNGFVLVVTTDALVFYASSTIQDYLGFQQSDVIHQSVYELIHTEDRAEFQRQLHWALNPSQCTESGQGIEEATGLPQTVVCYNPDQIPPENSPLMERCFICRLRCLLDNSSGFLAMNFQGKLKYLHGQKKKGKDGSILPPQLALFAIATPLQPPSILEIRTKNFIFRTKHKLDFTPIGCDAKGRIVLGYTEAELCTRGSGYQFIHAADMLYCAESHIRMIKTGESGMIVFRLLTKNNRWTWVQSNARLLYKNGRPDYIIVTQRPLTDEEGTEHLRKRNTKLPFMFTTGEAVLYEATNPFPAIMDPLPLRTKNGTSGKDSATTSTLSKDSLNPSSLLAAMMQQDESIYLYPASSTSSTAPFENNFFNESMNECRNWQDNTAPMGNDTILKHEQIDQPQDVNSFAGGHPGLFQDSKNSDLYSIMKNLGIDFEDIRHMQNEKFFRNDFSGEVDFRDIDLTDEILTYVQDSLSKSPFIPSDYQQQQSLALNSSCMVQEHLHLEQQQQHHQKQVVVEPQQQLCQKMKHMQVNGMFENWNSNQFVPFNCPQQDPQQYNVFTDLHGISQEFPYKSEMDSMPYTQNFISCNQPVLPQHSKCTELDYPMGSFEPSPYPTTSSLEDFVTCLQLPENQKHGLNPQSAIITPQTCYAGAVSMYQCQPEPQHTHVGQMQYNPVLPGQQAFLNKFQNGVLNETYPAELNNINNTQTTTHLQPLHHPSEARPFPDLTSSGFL
Method: (§2) After 24 h of incubation, the cells were treated with the reference (5 nM TCDD) and tested compounds using a contact-free acoustic liquid handler ECHO 550 (Labcyte, San Jose, CA, USA). […] The cells were incubated with the tested compounds for 4 h. Thereafter, the cells were washed with PBS by Washer EL406 (BioTek, Winooski, VT, USA) and lysed by 1x gene reporter lysis buffer (E3971, Promega). After adding the substrate (D-Luciferin, L9504, Sigma) with a dispenser Multidrop Combi (ThermoFisher Scientific), the luciferase activity was measured on a multimode plate reader EnVision (PerkinElmer). The experiments were performed in technical duplicates and three biological replicates at least.

vitamin D receptor (VDR) = biological target: T2, vitamin D receptor (VDR) (Homo sapiens, UniProt P11473); assay: Nuclear receptor counter-screen, luciferase reporter assay IZ-VDRE cells; type: cell-based; conditions: VD3 75 nM, 24 h
T2 construct: IZ-VDRE (derived from the human colon adenocarcinoma cell line LS180); endogenous in cells; host or cells: IZ-VDRE (LS180 stably transfected reporter line)
T2 sequence (P11473 1-427): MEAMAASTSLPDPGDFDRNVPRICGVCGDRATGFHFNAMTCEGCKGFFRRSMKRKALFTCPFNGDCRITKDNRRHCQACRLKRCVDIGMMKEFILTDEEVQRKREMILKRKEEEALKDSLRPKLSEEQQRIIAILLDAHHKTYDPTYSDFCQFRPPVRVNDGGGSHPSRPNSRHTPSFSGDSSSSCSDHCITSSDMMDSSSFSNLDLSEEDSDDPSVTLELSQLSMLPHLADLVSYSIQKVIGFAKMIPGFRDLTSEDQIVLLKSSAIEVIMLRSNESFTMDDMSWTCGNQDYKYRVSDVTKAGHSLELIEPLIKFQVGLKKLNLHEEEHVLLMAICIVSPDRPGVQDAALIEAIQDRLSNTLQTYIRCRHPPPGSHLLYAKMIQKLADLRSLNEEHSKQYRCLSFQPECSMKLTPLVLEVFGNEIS
Method: (§3) The following stably transfected reporter gene cell lines were used to estimate specific receptor activation: AZ-AHR (derived from the human hepatocellular carcinoma cell line HepG2) [41], LS174T-AHR-luc (harboring the reporter plasmid pGL-4.27-DRE and prepared by the same protocol as AZ-AHR, AZ-GR (derived from the human cervix carcinoma cell line HeLa)) [42], and IZ-VDRE (derived from the human colon adenocarcinoma cell line LS180) [43]. Cells were cultured in Dulbecco’s modified Eagle’s medium supplemented with 10% fetal bovine serum, 4 mM L-glutamine, 1% nonessential amino acids and antibiotics, and 100 U/mL Penicillin-Streptomycin. […]
(§4) The reporter cells were seeded into 96-well plates at a density of 2.5 × 10^4 (AZ-AHR, LS174T-AHR-luc, IZ-VDRE), 5 × 10^4 (AIZ-AR), 2.2 × 10^4 (AZ-GR), or 4 × 10^4 (PAZ-PPARg) cells in 0.2 mL of culture medium. […] After treatment, cells were lysed in a lysis buffer and the luciferase activity was measured in a 96-well plate format using the Nano-Glo Luciferase AssaySystem for the PAZ-PPARg and IZ-VDRE cell lines and the Luciferase AssaySystem for the AZ-AHR, LS174T-AHR-luc, AIZ-AR, and AZ-GR cell lines on a Tecan Infinite M200 Pro Plate Reader (Tecan, Männedorf, Switzerland).

[3] = biological target: glucocorticoid receptor (GR) (Homo sapiens, UniProt P04150); assay: cell-based
Description: (§1) The human colon adenocarcinoma cell line LS174T was purchased from the American Type Culture Collection (ATCC). The following stably transfected reporter gene cell lines were used to estimate specific receptor activation: AZ-AHR (derived from the human hepatocellular carcinoma cell line HepG2), LS174T-AHR-luc (harboring the reporter plasmid pGL-4.27-DRE and prepared by the same protocol as AZ-AHR, AZ-GR (derived from the human cervix carcinoma cell line HeLa)), and IZ-VDRE (derived from the human colon adenocarcinoma cell line LS180). Cells were cultured in Dulbecco’s modified Eagle’s medium supplemented with 10% fetal bovine serum, 4 mM L-glutamine, 1% nonessential amino acids and antibiotics, and 100 U/mL Penicillin-Streptomycin. AIZ-AR (derived from the human prostate carcinoma cell line 22RV1) was cultivated in RPMI-1640 medium supplemented with 10% charcoal-stripped fetal bovine serum, 4 mM L-glutamine, and antibiotics 100 U/mL Penicillin-Streptomycin. PAZ-PPARg (derived from the human bladder carcinoma cell line T24/83) was cultivated in Dulbecco’s modified Eagle’s medium supplemented with 10% charcoal-stripped fetal bovine serum, 4 mM L-glutamine and antibiotics, and 100 U/mL Penicillin-Streptomycin. Cells were maintained in 75 cm^2 plastic tissue culture flasks and subcultured twice a week.

AHR [4] = biological target: T1, AHR
Method: as §2

androgen receptor (AR) = conditions: DHT 100 nM, 24 h
Method: The human colon adenocarcinoma cell line LS174T was purchased from the American Type Culture Collection (ATCC). […] Cells were cultured in Dulbecco’s modified Eagle’s medium supplemented with 10% fetal bovine serum, 4 mM L-glutamine, 1% nonessential amino acids and antibiotics, and 100 U/mL Penicillin-Streptomycin. […] PAZ-PPARg (derived from the human bladder carcinoma cell line T24/83) was cultivated in Dulbecco’s modified Eagle’s medium supplemented with 10% charcoal-stripped fetal bovine serum, 4 mM L-glutamine and antibiotics, and 100 U/mL Penicillin-Streptomycin. Cells were maintained in 75 cm^2 plastic tissue culture flasks and subcultured twice a week.

AZ-AHR cells = assay: Cell viability assays (MTT, neutral red, LDH) in AZ-AHR cells; type: cell-based, human; conditions: 24 h, 2.5 and 5 mM
Method: The highest concentrations of the tested compounds were adjusted based on their solubility. […] The MTT (3-(4,5,-dimethylthiazol-2-yl)-2,5-diphenyltetrazolium bromide) colorimetric assay was performed as previously described. The neutral red assay and LDH (Abcam, Cambridge, UK) assays were performed according to the manufacturer’s protocol. Assays were measured spectrophotometrically using a Tecan Infinite M200 plate reader (Tecan, Männedorf, Switzerland).

AHR [5] = biological target: T1, AHR; parameters: AZ-AHR (derived from the human hepatocellular carcinoma cell line HepG2); endogenous in cells; host or cells: AZ-AHR (HepG2 stably transfected with a reporter); method as in PMID 26235394; conditions: 4 h of incubation, human hepatic HepG2 (40/6) reporter cells; cited from earlier work
AHR [6] = biological target: T1, AHR; assay: AHR luciferase reporter assay in LS174T-AHR-luc cells; type: cell-based; parameters: endogenous in cells; conditions: IND 274 µM (highest applied concentration), 4 h, TCDD 20 nM
Description: as §1

[7] = biological target: T3, peroxisome proliferator-activated receptor gamma (PPARγ) (Homo sapiens, UniProt P37231); assay: Nuclear receptor counter-screen, luciferase reporter assay PAZ-PPARg cells; type: cell-based; conditions: 15d-PGDJ 40 µM, 24 h
T3 construct: PAZ-PPARg (derived from the human bladder carcinoma cell line T24/83); endogenous in cells; host or cells: PAZ-PPARg (T24/83 stably transfected reporter line)
T3 sequence (P37231 1-505): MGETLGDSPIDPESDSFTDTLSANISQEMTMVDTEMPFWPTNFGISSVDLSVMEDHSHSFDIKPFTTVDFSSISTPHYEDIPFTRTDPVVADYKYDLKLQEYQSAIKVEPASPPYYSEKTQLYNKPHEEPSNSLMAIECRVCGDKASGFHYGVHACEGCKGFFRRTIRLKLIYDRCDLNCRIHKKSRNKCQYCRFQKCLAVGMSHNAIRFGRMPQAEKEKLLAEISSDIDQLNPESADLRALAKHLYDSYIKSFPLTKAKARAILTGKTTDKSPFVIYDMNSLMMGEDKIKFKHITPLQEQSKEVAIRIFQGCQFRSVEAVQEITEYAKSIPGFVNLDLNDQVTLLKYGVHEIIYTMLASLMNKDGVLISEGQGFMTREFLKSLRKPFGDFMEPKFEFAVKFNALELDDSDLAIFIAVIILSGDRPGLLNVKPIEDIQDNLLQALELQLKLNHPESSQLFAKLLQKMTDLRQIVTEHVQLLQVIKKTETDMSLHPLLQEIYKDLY
Method: as §3, §4

[8] = AZ-AHR cells, 4 h, luciferase activity by MICT in highest concentration / by 5 nM TCDD

Sequence of glucocorticoid receptor (GR) (P04150 whole entry): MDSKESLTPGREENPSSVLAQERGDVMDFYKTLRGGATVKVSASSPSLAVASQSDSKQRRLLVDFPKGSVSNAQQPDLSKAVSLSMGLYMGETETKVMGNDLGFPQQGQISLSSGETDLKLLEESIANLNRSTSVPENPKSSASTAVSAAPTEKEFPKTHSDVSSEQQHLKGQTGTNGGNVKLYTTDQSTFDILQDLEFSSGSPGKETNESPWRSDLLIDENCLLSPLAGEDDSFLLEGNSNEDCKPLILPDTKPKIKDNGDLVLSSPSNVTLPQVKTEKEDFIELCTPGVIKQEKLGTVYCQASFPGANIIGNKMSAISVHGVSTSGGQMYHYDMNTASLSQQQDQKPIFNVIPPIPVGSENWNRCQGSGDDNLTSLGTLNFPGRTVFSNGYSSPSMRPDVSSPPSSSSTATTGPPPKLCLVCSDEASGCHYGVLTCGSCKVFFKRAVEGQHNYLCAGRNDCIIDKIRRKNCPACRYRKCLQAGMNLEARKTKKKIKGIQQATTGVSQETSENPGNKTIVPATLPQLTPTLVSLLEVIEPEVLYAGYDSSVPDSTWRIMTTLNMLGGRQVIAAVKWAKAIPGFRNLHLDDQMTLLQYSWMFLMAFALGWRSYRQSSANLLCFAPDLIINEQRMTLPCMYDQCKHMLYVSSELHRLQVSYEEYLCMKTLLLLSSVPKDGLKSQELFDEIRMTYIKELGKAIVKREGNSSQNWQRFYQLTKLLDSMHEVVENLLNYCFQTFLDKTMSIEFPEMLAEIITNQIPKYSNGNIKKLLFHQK

Structure (SMILES)	AHR agonist efficacy class (AHR [1])	EC50 (AHR [2]) [µM]	efficacy class of AHR agonist based on magnitude of luciferase induction (AHR [2]; AZ-AHR cells, 4 h)	further results
O=Cc1c[nH]c2ccccc12 [IA, Indole-3-aldehyde]	no or low efficacy	18.9 ± 3.9	low	relative efficacy, % of maximal induction to TCDD (AHR [2]; [8]): ≈ 25%
C=C1CC[C@H](O)C/C1=C/C=C1\CCC[C@]2(C)[C@@H]([C@H](C)CCCC(C)C)CC[C@@H]12 [VD3, cholecalciferol]	–	–	–	fold induction at 0.075 µM (vitamin D receptor (VDR)): 65
O=C(O)C(O)Cc1c[nH]c2ccccc12 (centres unmarked) [ILA, indole-3-lactate]	no or low efficacy	–	–	–
C[C@@H]1C[C@H]2[C@@H]3CCC4=CC(=O)C=C[C@]4(C)[C@@]3(F)[C@@H](O)C[C@]2(C)[C@@]1(O)C(=O)CO [DEX, dexamethasone]	–	–	–	fold induction at 0.1 µM [3]: 22
O=C(O)C(=O)Cc1c[nH]c2ccccc12 [IPY, indole-3-pyruvate]	high-efficacy	–	high	relative efficacy, % of maximal induction to TCDD (AHR [2]; [8]): 77%; EC50 (AHR [4]): 24.4 ± 12 µM
C[C@]12CCC(=O)C[C@@H]1CC[C@@H]1[C@@H]2CC[C@]2(C)[C@@H](O)CC[C@@H]12 [DHT, 5α-dihydrotestosterone]	–	–	–	fold induction (androgen receptor (AR)): 20 fold
Clc1cc2c(cc1Cl)Oc1cc(Cl)c(Cl)cc1O2 [TCDD, 2,3,7,8-tetrachlorodibenzo-p-dioxin, reference compound]	–	–	–	fold induction at 0.005 µM (AHR [2]; read-out: fold induction of luciferase activity, AZ-AHR cells, 4 h, TCDD 5 nM, over control cells): ~200
NCCc1c[nH]c2ccccc12 [TA, tryptamine]	medium efficacy	13.8	–	efficacy class of AHR agonist based on magnitude of luciferase induction (AHR [2]): medium
NC(=O)Cc1c[nH]c2ccccc12 [IAD, indole-3-acetamide]	high-efficacy	4.5	high	relative efficacy, % of maximal induction to TCDD (AHR [2]; [8]): 84%
Cc1c[nH]c2ccccc12 [3MI, 3-methylindole]	medium efficacy	8.4	medium	–
O=C(O)/C=C/c1c[nH]c2ccccc12 [IAC, indole-3-acrylate]	medium efficacy	–	high	relative efficacy, % of maximal induction to TCDD (AHR [2]; [8]): 68%; EC50 (AHR [4]): 8.4 µM
c1ccc2[nH]ccc2c1 [IND, Indole]	high-efficacy	37.6 ± 14.4	–	EC50 (AHR [1]): ~1500 µM; toxicity at very high concentrations (AZ-AHR cells): toxic; efficacy class of AHR agonist based on magnitude of luciferase induction (AHR [2]): high; indole concentrations under which AHR was saturated (AHR [2]): > 20 µM; EC50 (AHR [5]): ~3 µM; AHR activation compared with TCDD (AHR [6]): stronger than TCDD
CCCCC/C=C/C=C1/C(=O)C=C[C@@H]1C/C=C\CCCC(=O)O [15d-PGDJ, 15-Deoxy-δ12,14-Prostaglandin J2]	–	–	–	fold induction [7]: 3 fold
O=C(O)CCc1c[nH]c2ccccc12 [IPA, indole-3-propionate]	no or low efficacy	–	–	efficacy class of AHR agonist based on magnitude of luciferase induction (AHR [2]): low; relative efficacy, % of maximal induction to TCDD (AHR [2]): ≈ 25%; EC50 (AHR [4]): 48.1 ± 15.2 µM
O=C(O)Cc1c[nH]c2ccccc12 [IAA, indole-3-acetate]	no or low efficacy	–	–	–
OCCc1c[nH]c2ccccc12 [IET, indole-3-ethanol]	medium efficacy	29.3 ± 8.2	medium	–
